SMILES strings stand for the structures.

These results are taken from paper PMC10813862, “Gαi2 Protein Inhibition Blocks Chemotherapy- and Anti-Androgen-Induced Prostate Cancer Cell Migration” (Cancers, 2024).

Assay [1] has as its system PC3 cells. Kind of assay: transwell migration assay, PC3 cells. It is filed as cell-based, human. The method, then:
(§1) In vitro transwell migration assays were conducted as described previously. Briefly, the outside of the transwell inserts (BD Biosciences, San Jose, CA, USA) were coated with 50 µL of rat tail collagen (50 μg/mL; BD Biosciences, San Jose, CA, USA) overnight at 4 °C. The next day, 50 μL of the aforementioned rat tail collagen was added for 1 h at room temperature into the transwell inserts to coat the inside of the membranes. DU145, PC3 and LNCaP cells were trypsinized and suspended at the appropriate density (3 × 10^5 cells/insert for DU145 and PC3, and 5 × 10^5 cells/insert for LNCaP) in MEM or RPMI containing 0.2% BSA (Sigma-Aldrich, St. Louis, MO, USA). Chemoattractant solution, used as the positive control, was made by diluting the epidermal growth factor (EGF) (10 ng/mL) into MEM (PC3 and DU145) or RPMI (LNCaP) supplemented with 0.2% BSA. Media containing 0.2% BSA served as a control. Control and EGF solutions (400 μL) were added into the wells of a 24-well plate. Aliquots of 100 μL of cell suspensions, treated with or without the different compounds at several concentrations, were loaded into the transwell inserts, and the plates were incubated at 37 °C for 5 h (DU145 and PC3) or 24 h (LNCaP). The cells inside the transwell inserts were removed by cotton swabs, and the cleaned inserts were fixed with 350 μL of 4% paraformaldehyde (pH 7.5) for 20 min at room temperature. Cells that had migrated to the outside of the transwell insert membrane were stained with 3 ng/mL of DAPI solution (Thermo Fisher Scientific, Eugene, OR, USA), and images of five non-overlapping fields were captured using an Axiovert 200M, Carl Zeiss (Thornwood, NY, USA) microscope. The number of stained nuclei were determined with automatic counting using image analysis software (ZEN 2012 (blue edition, Version 1.1.1.0); Carl Zeiss Microscopy GmbH, Oberkochen, Germany). The results were expressed as a migration index defined as the average number of cells per field for test substance/the average number of cells per field for the medium control.

The test system of a further assay is LNCaP cells. In words: transwell migration assay, LNCaP cells. The assay is classed as cell-based, human. To be noted: compound 14 at 25 μM, simultaneous treatment with enzalutamide, bicalutamide, SAHA or SBI-I-19. On the procedure: as §1
Assay [2] relates to PC3 cells. Further details: method as in PMID 32575572. The note with it: cited from earlier work.
For a further assay, the system named is DU145 cells. Further details: method as in PMID 32575572. To be noted: cited from earlier work.
For another assay, the system named is Gαi2 protein. Kind of assay: Western blot of Gαi2 protein levels in PC3 cells. The assay is classed as cell-based, human. The note with it: 24 h; docetaxel 1 nM. On the procedure: Docetaxel, a taxoid anti-cancer agent, was purchased from Millipore-Sigma and dissolved in DMSO at a starting concentration of 100 μM. SAHA, a commercially available FDA-approved HDACi, was purchased from Sigma-Aldrich (St. Louis, MO, USA) and dissolved in DMSO at a starting concentration of 100 mM. SBI-I-19, an HDAC inhibitor conjugated with anti-androgen, was dissolved in DMSO at a starting concentration of 50 mM. The anti-androgen drugs enzalutamide and bicalutamide were purchased from Selleckchem (Houston, TX, USA) and Sigma-Aldrich, respectively. Anti-androgens were prepared at a stock concentration of 100 mM (enzalutamide) and 10 mM (bicalutamide) in DMSO. The Gαi2 inhibitor (compound 14) was diluted in DMSO at a stock concentration of 100 mM, as previously described. All drugs used in the study were then diluted in the culture media to the final concentrations used in various assays. To determine the effects of specific treatments on the levels of Gαi2 protein, LNCaP and PC3 cells (10^6 cells) were cultured overnight in 10 cm^2 culture dishes. The cells were then treated with anti-androgens and other agents for 24 h and the total cell lysates were collected for Western blot analyses.
Western blot analyses were performed as described previously. […] The density of specific protein bands was determined using ImageJ 1.53 K image analyses software.

As to `C/C(=N\c1ccc(O)cc1)c1cc2ccccc2n1C` [Compound 14], in the assay with PC3 cells [1] (compound 14 at 25 μM, simultaneous treatment with docetaxel), the “effect on docetaxel-induced PC3 cell migration” value is “blocked the stimulatory effects of docetaxel”. Moreover, in the assay on LNCaP cells, the “effect on HDACi- and anti-androgen-induced LNCaP cell migration” value is listed as “blocked”. The “EGF-induced migration of PC3 cells” value in the assay with PC3 cells [2] is given as “attenuated the EGF-induced migration”. Further, the “EGF-induced migration of DU145 cells” value in the assay on DU145 cells is “attenuated the EGF-induced migration”.

Regarding `CC(=O)O[C@@]12CO[C@@H]1C[C@H](O)[C@@]1(C)C(=O)[C@H](O)C3=C(C)[C@@H](OC(=O)[C@H](O)[C@@H](NC(=O)OC(C)(C)C)c4ccccc4)C[C@@](O)([C@@H](OC(=O)c4ccccc4)[C@H]21)C3(C)C` [docetaxel, reference compound], the “effect of chemotherapeutic drugs on PC3 cell migration” value in the assay on PC3 cells [1] (drug alone, AR-negative cells) was “induced an increase in cell migration”. Further, in the assay on Gαi2 protein, the “levels of Gαi2 protein in PC3 cells” value is “had no effect on the levels of Gαi2 protein”.
